Experimental data reported in publication PMC5018819 (Scientific Reports, 2016).
Where two headings read alike, the source gives them in different places.

Legend:
HsCKα1 [1] = target: T1, HsCKα1 (Homo sapiens, UniProt P35790); experiment: Kd by tryptophan fluorescence quenching; assay type: binding; details: 25 °C, enzyme 1 μM
T1 construct: made in house
Description: (§1) Compounds BR23 and BR25 were prepared in 100% DMSO. The Kds for compounds BR23 and BR25 against HsCKα1 and PfCK were measured by monitoring the quenching of tryptophan fluorescence. All experiments were carried out in a Cary Eclipse spectrofluorometer at 25 °C with the enzymes at 1 μM, and concentrations of compounds varying from 0.05 to 8 μM for HsCKα1, and from 0.05 to 16 μM for PfCK in 25 mM Tris, 150 mM NaCl, pH 7.5. Fluorescence emission spectra were recorded in the 300–400 nm range with an excitation wavelength of 280 nm, with slit width of 5 nm. Controls were determined by incubating the enzymes with equivalent amounts of DMSO. As indicated previously, data analysis was performed in Prism (GraphPad software) considering a model with a single binding site (Eq. 1), where F0 is the intrinsic fluorescence of the enzyme in the absence of quencher (Q), F1 is the observed fluorescence at a given quencher concentration, fa is the fractional degree of fluorescence, and Kd is the dissociation constant.

PfCK = target: T2, PfCK (Plasmodium falciparum, UniProt Q8IM71); experiment: Kd by tryptophan fluorescence quenching; assay type: binding; details: for Kd: tryptophan fluorescence quenching, 25 °C, enzyme 1 μM
T2 construct: made in house
T2 sequence (Q8IM71 1-440): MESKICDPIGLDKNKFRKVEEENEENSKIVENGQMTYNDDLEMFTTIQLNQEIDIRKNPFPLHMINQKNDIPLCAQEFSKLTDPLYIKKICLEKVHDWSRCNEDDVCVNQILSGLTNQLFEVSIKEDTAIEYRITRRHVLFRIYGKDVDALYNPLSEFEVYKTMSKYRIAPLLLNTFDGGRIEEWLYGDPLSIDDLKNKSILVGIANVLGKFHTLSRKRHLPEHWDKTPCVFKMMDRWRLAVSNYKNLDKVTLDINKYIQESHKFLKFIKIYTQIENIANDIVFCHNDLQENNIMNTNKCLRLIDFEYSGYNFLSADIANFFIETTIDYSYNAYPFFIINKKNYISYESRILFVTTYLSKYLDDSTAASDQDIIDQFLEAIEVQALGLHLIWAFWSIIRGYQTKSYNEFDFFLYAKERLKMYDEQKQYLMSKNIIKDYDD
Description: as §1

HsCKα1 [2] = target: T1, HsCKα1; experiment: Ki determination and mode of inhibition; assay type: biochemical; details: for α, HsCKα1, ATP / α, HsCKα1, Cho: alpha factor of mixed inhibition
Description: A continuous spectrophotometric 96-well plate assay was established for CK and EK activity based on an assay described. […] The reaction was initiated by addition of enzyme or substrate, as appropriate, and the rate of reaction was monitored by following the decrease in absorbance at 341 nm for 10 min at room temperature using a Thermo Multiska spectrophotometer. Experiments were carried out to ensure that coupling enzymes were not rate-limiting under any of the conditions used and control experiments lacking substrates and/or enzyme were carried out to correct for any background rate.
Activity was measured at 3–4 different concentrations of inhibitor and a fixed concentration of one substrate (as specified in the standard assay) while the second substrate was varied. GraphPad Prism 6 (GraphPad Software Inc.) was used to fit data to different inhibition models with the best fit being determined by Aike’s Informative Criteria. Kis were estimated from the best-fit model and results were reinforced by linear re-plots of the data (Lineweaver Burke, Dixon, s/v against I)[38].

[3] = ATP as variable substrate, read-out: Ki, HsCKα1, ATP
[4] = read-out: Ki, HsCKα1, Cho, Cho as variable substrate
[5] = read-out: Ki, HsCKα1, with respect to Cho, mixed inhibition, approximate value

T1 sequence (P35790 whole entry): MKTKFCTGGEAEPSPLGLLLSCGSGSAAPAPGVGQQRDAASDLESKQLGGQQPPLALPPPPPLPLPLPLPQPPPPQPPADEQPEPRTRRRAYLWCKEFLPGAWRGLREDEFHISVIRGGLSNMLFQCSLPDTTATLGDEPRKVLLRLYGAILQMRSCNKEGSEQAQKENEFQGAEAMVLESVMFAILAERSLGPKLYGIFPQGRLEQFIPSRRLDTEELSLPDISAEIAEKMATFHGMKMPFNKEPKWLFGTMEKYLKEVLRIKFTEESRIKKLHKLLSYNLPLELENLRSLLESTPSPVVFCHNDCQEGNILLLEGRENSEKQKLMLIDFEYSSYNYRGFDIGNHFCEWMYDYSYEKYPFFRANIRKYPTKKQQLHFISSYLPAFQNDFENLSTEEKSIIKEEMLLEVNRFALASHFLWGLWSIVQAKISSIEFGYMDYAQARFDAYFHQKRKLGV

| SMILES | Kd (HsCKα1 [1]) [nM] | Kd (PfCK) [nM] | mode of inhibition, HsCKα1, ATP (HsCKα1 [2]; ATP as variable substrate) | Ki (HsCKα1 [2]; [3]) [nM] | mode of inhibition, HsCKα1, Cho (HsCKα1 [2]; Cho as variable substrate) | α, HsCKα1, ATP (HsCKα1 [2]; ATP as variable substrate) | α, HsCKα1, Cho (HsCKα1 [2]; Cho as variable substrate) | Ki (HsCKα1 [2]; mixed inhibition, approximate value, read-out: Ki, HsCKα1, with respect to ATP) [nM] | Ki (HsCKα1 [2]; [4]) [nM] | Ki (HsCKα1 [2]; [5]) [nM] | affinity for PfCK relative to BR23 (PfCK; ratio of Kds) [fold] |
| --- | --- | --- | --- | --- | --- | --- | --- | --- | --- | --- | --- |
| CN(C)c1cc[n+](Cc2ccc(-c3ccc(C[n+]4ccc(N5CCCC5)cc4)cc3)cc2)cc1.[Br-].[Br-] [BR23] | 521 ± 200 | 1400 | Mixed | 3700 | Mixed | 0.73 | 59 | ~4000 | 114 | ~100 | – |
| CN(C)c1cc[n+](Cc2ccc(CCCCc3ccc(C[n+]4ccc(N5CCCC5)cc4)cc3)cc2)cc1.[Br-].[Br-] [BR25] | 352 ± 20 | 415 ± 81 | Mixed | 4100 | Mixed | 0.49 | 139 | – | 100 | ~100 | 3 |
